Results as given in US20090099195A1 (ASTRAZENECA AB, priority 2007, published 2009).

Molecular target: T1, hP2X3 (human Purinergic P2X receptors subtype 3), clone B (Homo sapiens, UniProt P56373)
T1 sequence (P56373 1-397): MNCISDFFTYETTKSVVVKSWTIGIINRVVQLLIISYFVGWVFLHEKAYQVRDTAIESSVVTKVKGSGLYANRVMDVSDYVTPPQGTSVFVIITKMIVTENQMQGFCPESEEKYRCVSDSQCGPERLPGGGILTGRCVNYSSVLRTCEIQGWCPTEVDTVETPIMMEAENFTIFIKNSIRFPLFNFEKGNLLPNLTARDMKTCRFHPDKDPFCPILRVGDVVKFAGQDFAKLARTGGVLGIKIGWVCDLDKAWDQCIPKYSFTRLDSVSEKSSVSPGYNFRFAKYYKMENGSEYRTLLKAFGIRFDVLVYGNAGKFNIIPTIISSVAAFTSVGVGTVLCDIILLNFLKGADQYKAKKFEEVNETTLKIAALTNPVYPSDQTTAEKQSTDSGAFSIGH
Experiment: hP2X3 FLIPR calcium (Fluo-4) antagonist assay, clone B
Conditions: Human P2X3 FLIPR Clone B IC50 (nM), RLE cells expressing hP2X3 clone B (NM_002559); agonist 500 nM α,β-methylene-ATP

IC50 [nM] | SMILES
280 | CC1CN(c2nc(NC(c3ccccc3)c3ccccc3)c3c(n2)C(=O)N(C(C)C)C3)CC(C)O1 (centres unmarked) [Example 86, 4-(Benzhydryl-amino)-2-(2,6-dimethyl-morpholin-4-yl)-6-isopropyl-5,6-dihydro-pyrrolo[3,4-d]pyrimidin-7-one]
> 30000 | CC(C)N1Cc2c(Nc3ccc(Cc4ccccc4)cc3)nc(N3CCOCC3)nc2C1=O [Example 37, 4-[(4-benzylphenyl)amino]-6-isopropyl-2-morpholin-4-yl-5,6-dihydro-7H-pyrrolo[3,4-d]pyrimidin-7-one]
5100 | CC(C)N1Cc2c(NCc3cnc4ccccc4c3)nc(N3CCOCC3)nc2C1=O [Example 211, 6-isopropyl-2-morpholino-4-(quinolin-3-ylmethylamino)-5H-pyrrolo[3,4-d]pyrimidin-7(6H)-one]
3000 | CC(C)C(=O)N1CCN(c2nc(NC(C)(C)Cc3ccc(Cl)cc3)c3c(n2)C(=O)N(C(C)C)C3)CC1 [Example 124, 4-{[2-(4-chlorophenyl)-1,1-dimethylethyl]amino}-2-(4-isobutyrylpiperazin-1-yl)-6-isopropyl-5,6-dihydro-7H-pyrrolo[3,4-d]pyrimidin-7-one]
1400 | CC(C)N1Cc2c(NC(C)(C)Cc3ccc(Cl)cc3)nc(NCCCN3CCCC3=O)nc2C1=O [Example 66, 4-{[2-(4-chlorophenyl)-1,1-dimethylethyl]amino}-6-isopropyl-2-{[3-(2-oxopyrrolidin-1-yl)propyl]amino}-5,6-dihydro-7H-pyrrolo[3,4-d]pyrimidin-7-one]
130 | CC(C)N1Cc2c(NC(c3ccccc3)c3ccccc3)nc(N3CCN(C(=O)C4CC4)CC3)nc2C1=O [Example 79, 4-(Benzhydryl-amino)-2-(4-cyclopropanecarbonyl-piperazin-1-yl)-6-isopropyl-5,6-dihydro-pyrrolo[3,4-d]pyrimidin-7-one]
8500 | COc1cccc([C@@H](C)Nc2nc(N3CCN(C(C)=O)CC3)nc3c2CN(C(C)C)C3=O)c1 [Example 227, (R)-2-(4-acetylpiperazin-1-yl)-6-isopropyl-4-(1-(3-methoxyphenyl)ethylamino)-5H-pyrrolo[3,4-d]pyrimidin-7(6H)-one]
1000 | CC(=O)N1CCN(c2nc3c(c(N4CCCCC4Cc4ccccc4)n2)CN(C(C)C)C3=O)CC1 (centres unmarked) [Example 266, 4-(4-acetylpiperazin-1-yl)-2-(2-benzyl-1-piperidyl)-8-propan-2-yl-3,5,8-triazabicyclo[4.3.0]nona-1,3,5-trien-7-one]
270 | CC(=O)N1CCN(c2nc3c(c(N(Cc4ccccc4)Cc4ccc(Cl)cc4)n2)CN(C(C)C)C3=O)CC1 [Example 58, 2-(4-acetylpiperazin-1-yl)-4-[benzyl(4-chlorobenzyl)amino]-6-isopropyl-5,6-dihydro-7H-pyrrolo[3,4-d]pyrimidin-7-one]
80 | CCOc1ccc([C@@H](C)Nc2nc(N3CCN(C(C)=O)CC3)nc3c2CN(C(C)C)C3=O)c(C)c1 [Example 168, (R)-2-(4-acetylpiperazin-1-yl)-4-(1-(4-ethoxy-2-methylphenyl)ethylamino)-6-isopropyl-5H-pyrrolo[3,4-d]pyrimidin-7(6H)-one]
830 | CC(C)N1Cc2c(NC(c3ccccc3)c3ccccc3)nc(NCc3ccccc3)nc2C1=O [Example 84, 4-(Benzhydryl-amino)-2-benzylamino-6-isopropyl-5,6-dihydro-pyrrolo[3,4-d]pyrimidin-7-one]
200 | Cc1ccc(C(Nc2nc(N3CCN(C(C)C)CC3)nc3c2CN(C(C)C)C3=O)c2ccccc2)cc1 (centres unmarked) [Example 102, 2-(4-isopropyl-piperazin-1-yl)-6-isopropyl-4-[(phenyl-p-tolyl-methyl)-amino]-5,6-dihydro-pyrrolo[3,4-d]-pyrimidin-7-one]
7700 | CC(=O)N1CCN(c2nc3c(c(N4CCC[C@@H]4C(=O)OC(C)(C)C)n2)CN(C(C)C)C3=O)CC1 [Example 277, tert-butyl (2R)-1-[4-(4-acetylpiperazin-1-yl)-7-oxo-8-propan-2-yl-3,5,8-triazabicyclo[4.3.0]nona-1,3,5-trien-2-yl]pyrrolidine-2-carboxylate]
440 | CC(=O)N1CCN(c2nc(NC(C)c3ccc(C(C)(C)C)cc3)c3c(n2)C(=O)N(C(C)C)C3)CC1 (centres unmarked) [Example 5, 2-(4-acetylpiperazin-1-yl)-4-{[1-(4-tert-butylphenyl)ethyl]amino}-6-isopropyl-5,6-dihydro-7H-pyrrolo[3,4-d]pyrimidin-7-one]
5300 | CC(C)N1Cc2c(nc(NCCN(C)C)nc2N(Cc2ccccc2)Cc2ccccc2)C1=O [Example 106, 4-Dibenzylamino-2-(2-dimethylamino-ethylamino)-6-isopropyl-5,6-dihydro-pyrrolo[3,4-d]-pyrimidin-7-one]
750 | CC(=O)N1CCN(c2nc(NCc3noc(C4CCC4)n3)c3c(n2)C(=O)N(C(C)C)C3)CC1 [Example 278, 4-(4-acetylpiperazin-1-yl)-2-[(5-cyclobutyl-1,2,4-oxadiazol-3-yl)methylamino]-8-propan-2-yl-3,5,8-triazabicyclo[4.3.0]nona-1,3,5-trien-7-one]
29 | CCC(C)N1Cc2c(NCc3cc4ccccc4cn3)nc(N3CCN(C(C)=O)CC3)nc2C1=O (single isomer, unassigned; (+)) [Example 310, (+)-2-(4-acetylpiperazin-1-yl)-4-(3-isoquinolylmethylamino)-6-sec-butyl-5H-pyrrolo[3,4-d]pyrimidin-7-one]
500 | CC(=O)N1CCN(c2nc(NCc3cn4ccccc4n3)c3c(n2)C(=O)N(C(C)C)C3)CC1 [Example 155, 4-(4-acetylpiperazin-1-yl)-2-(1,7-diazabicyclo[4.3.0]nona-2,4,6,8-tetraen-8-ylmethylamino)-8-propan-2-yl-3,5,8-triazabicyclo[4.3.0]nona-1,3,5-trien-7-one]
2300 | CC(=O)N1CCN(c2nc3c(c(N4CCCC4Cc4ccccc4Cl)n2)CN(C(C)C)C3=O)CC1 (centres unmarked) [Example 46, 2-(4-acetylpiperazin-1-yl)-4-[2-(2-chlorobenzyl)pyrrolidin-1-yl]-6-isopropyl-5,6-dihydro-7H-pyrrolo[3,4-d]pyrimidin-7-one]
720 | CC(=O)N1CCN(c2nc3c(c(N4CCCC4c4ccc(Cl)cc4)n2)CN(C(C)C)C3=O)CC1 (centres unmarked) [Example 52, 2-(4-acetylpiperazin-1-yl)-4-[2-(4-chlorophenyl)pyrrolidin-1-yl]-6-isopropyl-5,6-dihydro-7H-pyrrolo[3,4-d]pyrimidin-7-one]
5300 | CC(=O)N1CCN(c2nc(NCC3OCCc4ccccc43)c3c(n2)C(=O)N(C(C)C)C3)CC1 (centres unmarked) [Example 205, 2-(4-acetylpiperazin-1-yl)-4-(isochoman-1-ylmethylamino)-6-isopropyl-5H-pyrrolo[3,4-d]pyrimidin-7(6H)-one]
830 | CCOc1cccc([C@@H](C)Nc2nc(N3CCN(C(C)=O)CC3)nc3c2CN(C(C)C)C3=O)c1 [Example 156, (R)-2-(4-acetylpiperazin-1-yl)-4-(1-(3-ethoxyphenyl)ethylamino)-6-isopropyl-5H-pyrrolo[3,4-d]pyrimidin-7(6H)-one]
400 | CCN1CCN(c2nc(NC(c3ccccc3)c3ccccc3)c3c(n2)C(=O)N(C(C)C)C3)CC1 [Example 78, 4-(Benzhydryl-amino)-2-(4-ethyl-piperazin-1-yl)-6-isopropyl-5,6-dihydro-pyrrolo[3,4-d]pyrimidin-7-one]
